Experimental data: patent publication US6620805B1, “Delivery of nucleic acids by porphyrins” (Yale University, priority 1996, dated 2003)
Where two headings read alike, the source gives them in different places.

Columns and labels:
HepG2 2.2.15 cells [1] = details: 5 μg oligo A, 4 h; for cellular delivery compared with TMP: 0-300 μg porphyrin
Procedure: HepG2 2.2.15 cells were set up in 96 well plates as above. […] Complexes were added to the cultures and incubated at 37° C. for 4 h. The monolayers were washed three times with PBS and cells were lysed and counted as previously described.

oligo A [2] = assay: Carboxymethyl (CM) ion exchange column binding of labelled oligo to cationic porphyrin; details: for porphyrin required for complete binding (saturation) of 60 μg oligo: 60 μg oligo A, 150 mM NaCl, 30 min room temperature, column binding assay
HepG2 2.2.15 = details: TMP concentration; 700 nM TMP: 100 nM EGS; daily treatments for 5 days
Procedure: (§1) The human hepatoma cell line HepG2 2.2.15 containing four copies of the HBV genome was used in this study. Cells were plated out (2×10^4/well) into 96 well plates and left for 5 days until confluent. […] The various dilutions were added to the cell monolayers (6 replicates per concentration). Daily treatments were carried out for 5 days changing the medium each day. After the fifth day cell culture supernatant was removed and assayed for extracellular HBV DNA levels by dot-blot using the method of Korba B. E. and Gerin J. L. (Use of a standardized cell culture assay to assess activities of nucleoside analogs against Hepatitis B virus replication. (1992) Antiviral Research 19, 55-70).

HepG2 2.2.15 cells [3] = assay: Delivery of TMP-complexed oligo to hepatoma cells in culture (cell-associated radioactivity); type: cell-based, human
Procedure: The complexed oligo was delivered to the cell cultures (6 replicates per variable), samples were removed for measurement of delivered radioactivity cpm and the cultures were returned to a 37° C. incubator for 4 h. Cultures were washed three times with 100 μl PBS and cells were lysed with SDS lysis buffer for extraction of nucleic acids (0.5% SDS, 10 mM Tris HCl pH 7.4, 10 mM EDTA, 10 mM NaCl, […] proteinase K). Lysates were counted to determine cell-associated radioactivity and nucleic acids were extracted from the lysate by phenol-chloroform treatment and ethanol precipitation.

oligo A [4] = details: 2.4 μg TMP, 150 mM NaCl
Description: The interaction of nucleic acids with water soluble porphyrins can easily be followed by measuring the absorbance spectrum of the porphyrin in the range 350-450 nm. Porphyrins have a characteristic Soret peak in this wavelength range. […] Spectra were taken over the range 300-500 nm and the wavelength of the Soret peak plotted against the mass of EGS.

[5] = 100 or 200 μg TMP with 100 μg oligo
Procedure: An internally-labelled Oligo A was prepared by kinasing a component oligo with ^33P ATP and ligating this shorter oligo to another short component cold oligo to form the full-length version. […] After 2 h and 24 h the mice were killed by cervical dislocation, weighed and their livers removed. Livers were weighed, homogenized and a small sample counted by liquid scintillation counting.

hepatoma cells = assay: Timecourse of binding/uptake of TMP-delivered oligo to hepatoma cells; type: cell-based, human; details: 30 μg TMP and 10 μg oligo A
Procedure: A timecourse experiment was carried out to determine the kinetics of binding/uptake of TMP-delivered oligonucleotides to hepatoma cells. […] A control timecourse was prepared without a delivery vehicle. Nucleic acids were recovered from one set of wells and were purified and analysed as described above.

[6] = 200 μg oligo A with 100 μg TMP
Procedure: After 8 h and 24 h mice were sacrificed and their livers quickly immersed in OCT medium (Tissue-Tek) and frozen in liquid N2. Thin sections were cut and sections were mounted on glass slides. Localisation of EGS in the liver section was determined by hybridisation of a ^33P-labelled antisense oligonucleotide complementary to the EGS sequence, and overlaying with a photographic emulsion. Background hybridisation was determined using a ^33P-labelled oligo with the same sequence as the EGS.

HepG2 2.2.15 cells [7] = assay: Fluorescence microscopy of delivered fluorescent oligo; type: cell-based, human; details: 100 μg fluorescent oligo, with 100 μg TMP or free, 1.5 h and 4 h
Procedure: A 30 mer oligo containing a 5′ fluorescein isothiocyanate molecule was synthesised, oligo C. Sterile glass coverslips were placed into the wells of 6-well plates and HepG2 2.2.15 cells were seeded into the wells at 5×10^4 cells/well. […] After 1.5 h and 4 h the coverslips were removed from the wells, dipped five times in PBS to remove excess oligo and were fixed in 4% formaldehyde in PBS. The coverslips were mounted in Slowfade (Molecular Probes, Inc.), and viewed on a Nikon Diaphot fluorescence microscope.

HepG2 2.2.15 cells [8] = assay: Influence of serum on TMP delivery of EGS; type: cell-based, human; details: 30 μg TMP with 5 μg oligo A; 0, 4% or 10% serum; 4 h and 24 h
Procedure: Ninety-six well plates were set up as described above and allowed to grow until 80% confluence. Six replicate wells for each variable were washed twice with PBS. OPTI MEM (0 serum), 4% FCS in RPMI or 10% FCS in RPMI was added to the appropriate wells.
Oligo A was radiolabelled as above. These complexes were added to the wells (in replicates of 6) and after 4 h and 24 h the monolayers were washed 3 times with PBS. Cells were lysed as above and radioactivity counted.

HBV = assay: Anti HBV activity in cell culture (extracellular HBV DNA by dot-blot); type: cell-based, Hepatitis B virus; details: TMP concentration corresponding to 100 nM EGS
Procedure: as §1

9.5 kbp plasmid = details: 20 μg 9.5 kbp plasmid, 500 μg TMP

C[N+](C)(C)c1ccc(-c2c3nc(c(-c4ccc([N+](C)(C)C)cc4)c4ccc([nH]4)c(-c4ccc([N+](C)(C)C)cc4)c4nc(c(-c5ccc([N+](C)(C)C)cc5)c5ccc2[nH]5)C=C4)C=C3)cc1 [TMA, meso tetra(trimethyl anilinium)porphine]
cellular delivery compared with TMP (HepG2 2.2.15 cells [1]): never as great as the TMP analogues | porphyrin amount giving maximal nucleic acid uptake (HepG2 2.2.15 cells [1]): 11 µg | porphyrin required for complete binding (saturation) of 60 μg oligo (oligo A [2]): approximately 100 μg

C[n+]1ccc(-c2c3nc(c(-c4cc[n+](C)cc4)c4ccc([nH]4)c(-c4cc[n+](C)cc4)c4nc(c(-c5cc[n+](C)cc5)c5ccc2[nH]5)C=C4)C=C3)cc1.Cc1ccc(S(=O)(=O)[O-])cc1.Cc1ccc(S(=O)(=O)[O-])cc1.Cc1ccc(S(=O)(=O)[O-])cc1.Cc1ccc(S(=O)(=O)[O-])cc1 [TMP, Meso-tetra(N-methyl-4 pyridyl)porphine Tetra Tosylate]
concentration showing no toxicity (HepG2 2.2.15): less than 700 nM | oligo delivered (HepG2 2.2.15 cells [3]; 1 μg delivered dose of oligo, 4 h): 0.5 µg | oligo delivered (HepG2 2.2.15 cells [3]; 5 μg delivered dose of oligo, 4 h): 2.8 µg | oligo delivered (HepG2 2.2.15 cells [3]; 10 μg delivered dose of oligo, 4 h): 4.8 µg | TMP amount at saturation of binding or uptake (HepG2 2.2.15 cells [3]; 1, 5 or 10 μg oligo A, 4 h): 30 µg | maximum oligo cell associated (HepG2 2.2.15 cells [3]; 3×10^4 cells): 4 to 5 µg | added dose cell-associated (HepG2 2.2.15 cells [3]; all oligo doses, 4 h): Approximately 50% | hepatic EGS levels over time (100 μg EGS with 20 μg TMP per mouse (lower TMP dose)): declined slightly over time | hepatic EGS levels over time (100 μg EGS with 100 μg TMP per mouse (higher TMP dose)): gradually increased | EGS level in kidney over time (100 μg EGS with 100 or 20 μg TMP per mouse, 2-72 h): rapid initial peak in the kidney which declined over 72 h | EGS levels in spleen, fat and serum (100 μg EGS with TMP, mice): negligible | enhancement with the higher TMP level (100 versus 20 μg TMP, same amount of EGS): two-fold | liver toxicity (mice, 100 μg EGS with 100 or 20 μg TMP): No liver toxicity was detected | mass of oligo at saturation (Soret peak reached 440 nm) (oligo A [4]): approximately 3 μg | persistence of delivered oligo in the liver [5]: persisted for 24 h | tolerability in mice ([5]; tail vein): well tolerated | oligo cell-associated (hepatoma cells; 8 h timepoint): greater than 75% | change in cell-associated material after 24 h (hepatoma cells; 24 h): reduction in the material cell-associated | hybridisation signal in liver after 24 h ([6]; 24 h): level of signal is reduced after 24 h | intrahepatic distribution of EGS ([6]; tail vein, mice): substantial EGS present in all hepatocytes | intracellular location of fluorescence (HepG2 2.2.15 cells [7]): All nuclei of the cells in the TMP-delivered fluorescent oligo cultures appeared brightly fluorescent | material cell-associated (HepG2 2.2.15 cells [8]): 50-70% | antiviral activity of TMP (HBV): highly antiviral | porphyrin required for complete binding (saturation) of 60 μg oligo (oligo A [2]): 60 µg | stoichiometry of oligo:TMP at saturation (oligo A [2]; 30 mer oligo, charge neutralisation): 4 molecules of oligo interact with 29 molecules of TMP | plasmid bound to TMP (9.5 kbp plasmid): 5 µg

Fe(III)-tetra-(N-methyl-4-pyridyl)-porphyrin chloride [Fe TMP]
cellular delivery compared with TMP (HepG2 2.2.15 cells [1]): does not affect cellular delivery by TMP up to a level of 30 μg | porphyrin amount giving maximal nucleic acid uptake (HepG2 2.2.15 cells [1]): 30 µg | influence of chelated Fe atom on nucleic acid binding (oligo A [2]; compared with TMP): behaved no differently than TMP alone
